Measured values published in ChEMBL document CHEMBL4152237, “Identification of novel β-lactams and pyrrolidinone derivatives as selective Histamine-3 receptor (H3R) modulators as possible anti-obesity agents” (Eur J Med Chem, 2018).
Active and inactive are the calls of the source. Unless noted, no cut-off for these calls is given here.

What was measured:
[1] = biological target: Histamine H1 receptor (Homo sapiens) (UniProt P35367); test: Agonist activity at H1R (unknown origin) expressed in HEK293 cells harboring luc2P/NFAT-RE plasmid at 10 uM after 6 to 8 hrs by luciferase reporter gene assay; assay type: functional, cell-based
[2] = biological target: Histamine H4 receptor (Homo sapiens) (UniProt Q9H3N8); test: Antagonist activity at H4R (unknown origin) expressed in HEK293 cells harboring glosensor-22F cAMP plasmid DNA assessed as effect on forskolin-stimulated cAMP accumulation at 10 uM preincubated with cells followed by forskolin addition measured after 10 mins by luminescence assay; assay type: functional, cell-based
Histamine H3 receptor [3] = biological target: T1, Histamine H3 receptor (Homo sapiens, UniProt Q9Y5N1); test: (§1) Agonist activity at human H3R expressed in HEK293 cells harboring glosensor-22F cAMP plasmid DNA assessed as inhibition of forskolin-stimulated cAMP accumulation preincubated with cells followed by forskolin addition measured after 10 mins by luminescence assay; assay type: functional, cell-based
[4] = biological target: T2, 5-hydroxytryptamine receptor 2C (Homo sapiens) (UniProt P28335); test: Agonist activity at human 5-HT2C expressed in HEK293 cells harboring luc2P/NFAT-RE plasmid at 10 uM after 6 to 8 hrs by luciferase reporter gene assay; assay type: functional, cell-based
T2 sequence (whole entry): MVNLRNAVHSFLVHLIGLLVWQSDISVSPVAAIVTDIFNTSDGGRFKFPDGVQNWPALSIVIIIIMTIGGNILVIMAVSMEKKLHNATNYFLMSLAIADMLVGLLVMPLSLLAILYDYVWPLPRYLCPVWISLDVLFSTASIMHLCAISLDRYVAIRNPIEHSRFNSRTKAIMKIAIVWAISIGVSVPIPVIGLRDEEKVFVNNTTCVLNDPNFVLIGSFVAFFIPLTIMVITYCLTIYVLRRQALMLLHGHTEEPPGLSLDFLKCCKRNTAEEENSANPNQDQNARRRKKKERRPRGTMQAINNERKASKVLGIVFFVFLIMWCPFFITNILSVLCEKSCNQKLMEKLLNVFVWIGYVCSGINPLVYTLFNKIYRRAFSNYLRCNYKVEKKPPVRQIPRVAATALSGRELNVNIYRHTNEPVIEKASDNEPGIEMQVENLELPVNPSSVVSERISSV

[5] = biological target: Histamine H2 receptor (Homo sapiens) (UniProt P25021); test: Antagonist activity at H2R (unknown origin) expressed in HEK293 cells harboring glosensor-22F cAMP plasmid DNA assessed as effect on forskolin-stimulated cAMP accumulation at 10 uM preincubated with cells followed by forskolin addition measured after 10 mins by luminescence assay; assay type: functional, cell-based
[6] = biological target: Histamine H1 receptor (Homo sapiens) (UniProt P35367); test: Antagonist activity at H1R (unknown origin) expressed in HEK293 cells harboring luc2P/NFAT-RE plasmid at 10 uM after 6 to 8 hrs by luciferase reporter gene assay; assay type: functional, cell-based
[7] = biological target: Luciferin 4-monooxygenase (Photinus pyralis) (UniProt P08659); test: Inhibition of firefly luciferase activity expressed in HEK293 cells assessed as reduction in forskolin-stimulated cAMP accumulation up to 10 uM preincubated with cells followed by forskolin addition measured after 10 mins by luminescence assay; assay type: cell-based
Histamine H3 receptor [8] = biological target: T1, Histamine H3 receptor; test: as §1, with “accumulation at 1 uM” for “accumulation”, “mins in presence of H3R antagonist GSK334429” for “mins”; assay type: functional, cell-based
[9] = biological target: Histamine H2 receptor (Homo sapiens) (UniProt P25021); test: Agonist activity at H2R (unknown origin) expressed in HEK293 cells harboring glosensor-22F cAMP plasmid DNA assessed as inhibition of forskolin-stimulated cAMP accumulation at 10 uM preincubated with cells followed by forskolin addition measured after 10 mins by luminescence assay; assay type: functional, cell-based
[10] = biological target: T2, 5-hydroxytryptamine receptor 2C (Homo sapiens); test: Antagonist activity at human 5-HT2C expressed in HEK293 cells harboring luc2P/NFAT-RE plasmid at 10 uM after 6 to 8 hrs by luciferase reporter gene assay; assay type: functional, cell-based
[11] = biological target: Histamine H4 receptor (Homo sapiens) (UniProt Q9H3N8); test: Agonist activity at H4R (unknown origin) expressed in HEK293 cells harboring glosensor-22F cAMP plasmid DNA assessed as inhibition of forskolin-stimulated cAMP accumulation at 10 uM preincubated with cells followed by forskolin addition measured after 10 mins by luminescence assay; assay type: functional, cell-based
HEK-293T = test: Cytotoxicity against HEK293T cells assessed as reduction in cell viability at 1 to 10 uM after 24 hrs by XTT assay; assay type: cell-based; conditions: human
Histamine H3 receptor [12] = biological target: T1, Histamine H3 receptor; test: Agonist activity at human H3R expressed in HEK293 cells harboring glosensor-22F cAMP plasmid DNA assessed as inhibition of forskolin-stimulated cAMP accumulation at 10 uM preincubated with cells followed by forskolin addition measured after 10 mins by luminescence assay relative to control; assay type: functional, cell-based

Chain of Luciferin 4-monooxygenase (Photinus pyralis) (P08659 whole entry): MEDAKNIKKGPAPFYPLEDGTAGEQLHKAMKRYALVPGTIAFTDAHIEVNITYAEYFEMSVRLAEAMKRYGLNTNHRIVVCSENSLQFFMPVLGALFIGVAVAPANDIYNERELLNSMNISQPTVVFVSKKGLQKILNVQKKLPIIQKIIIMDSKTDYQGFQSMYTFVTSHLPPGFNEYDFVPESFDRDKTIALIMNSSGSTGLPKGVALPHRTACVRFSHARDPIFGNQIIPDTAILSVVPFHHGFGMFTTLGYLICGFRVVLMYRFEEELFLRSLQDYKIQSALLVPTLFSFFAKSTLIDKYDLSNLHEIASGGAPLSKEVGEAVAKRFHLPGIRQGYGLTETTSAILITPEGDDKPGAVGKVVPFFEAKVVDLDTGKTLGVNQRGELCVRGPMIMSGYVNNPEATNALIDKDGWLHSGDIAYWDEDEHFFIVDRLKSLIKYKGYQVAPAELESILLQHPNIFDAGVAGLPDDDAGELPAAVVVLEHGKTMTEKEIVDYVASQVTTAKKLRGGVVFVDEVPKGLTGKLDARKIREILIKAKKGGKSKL
T1 sequence (Q9Y5N1 whole entry): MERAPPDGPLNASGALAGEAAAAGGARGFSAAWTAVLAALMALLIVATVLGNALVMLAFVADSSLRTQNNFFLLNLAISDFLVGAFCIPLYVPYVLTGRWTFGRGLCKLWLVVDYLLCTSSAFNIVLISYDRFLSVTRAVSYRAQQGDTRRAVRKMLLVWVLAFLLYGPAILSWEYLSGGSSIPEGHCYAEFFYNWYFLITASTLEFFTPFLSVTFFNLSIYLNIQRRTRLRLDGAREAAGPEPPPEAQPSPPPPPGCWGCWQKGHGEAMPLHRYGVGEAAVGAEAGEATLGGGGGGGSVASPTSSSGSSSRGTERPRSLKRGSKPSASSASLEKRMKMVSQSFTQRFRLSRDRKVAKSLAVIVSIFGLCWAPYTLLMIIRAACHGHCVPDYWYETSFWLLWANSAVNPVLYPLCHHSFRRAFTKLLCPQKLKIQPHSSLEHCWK
Chain of Histamine H1 receptor (Homo sapiens) (P35367 whole entry): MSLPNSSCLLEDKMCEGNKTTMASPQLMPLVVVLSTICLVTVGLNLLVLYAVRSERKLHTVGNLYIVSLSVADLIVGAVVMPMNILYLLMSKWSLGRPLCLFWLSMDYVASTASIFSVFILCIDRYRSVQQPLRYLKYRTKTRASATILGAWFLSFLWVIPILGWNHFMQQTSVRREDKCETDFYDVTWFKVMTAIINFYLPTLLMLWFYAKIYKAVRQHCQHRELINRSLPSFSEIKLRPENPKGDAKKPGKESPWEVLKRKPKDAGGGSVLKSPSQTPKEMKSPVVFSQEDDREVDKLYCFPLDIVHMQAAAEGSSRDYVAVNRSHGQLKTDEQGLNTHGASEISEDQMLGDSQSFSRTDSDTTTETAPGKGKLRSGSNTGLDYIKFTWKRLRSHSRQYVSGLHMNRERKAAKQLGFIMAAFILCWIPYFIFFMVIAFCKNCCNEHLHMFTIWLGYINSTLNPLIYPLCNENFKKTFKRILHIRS
Chain of Histamine H2 receptor (Homo sapiens) (P25021 whole entry): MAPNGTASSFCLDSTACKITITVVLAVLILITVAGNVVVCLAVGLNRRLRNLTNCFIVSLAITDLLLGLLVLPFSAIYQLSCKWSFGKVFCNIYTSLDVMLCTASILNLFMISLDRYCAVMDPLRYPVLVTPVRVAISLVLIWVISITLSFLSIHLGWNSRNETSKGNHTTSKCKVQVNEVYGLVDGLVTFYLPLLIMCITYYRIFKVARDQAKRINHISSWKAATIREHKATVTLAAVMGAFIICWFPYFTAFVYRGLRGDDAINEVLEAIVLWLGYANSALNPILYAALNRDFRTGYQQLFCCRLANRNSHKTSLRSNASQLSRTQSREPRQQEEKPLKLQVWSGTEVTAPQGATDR

Row | Structure (SMILES) | Activity [1] | inhibition [2] | EC50 (Histamine H3 receptor [3]; read-out: EC50) | Activity [4] | inhibition [5] | inhibition [6] | inhibition [7] | inhibition (Histamine H3 receptor [8]) | inhibition [9] | inhibition [10] | inhibition [11] | EC50 (Histamine H3 receptor [3]; read-out: pEC50 (converted)) | inhibition (Histamine H3 receptor [12]) | Activity (HEK-293T)
1 | COc1cc(NC2(c3ccccc3Cl)C(=O)N(C(C)(C)C)C(=O)/C2=C/c2ccccc2)cc(OC)c1OC (stereo not given) | inactive | inactive | 187 nM | inactive | inactive | inactive | inactive | inactive | inactive | inactive | inactive |  |  | Non-Toxic
2 | N=C(N)SCCc1cnc[nH]1 |  |  | 0.08 nM |  |  |  |  |  |  |  |  |  |  | 
3 | COc1ccc(N2C(=O)C(=Cc3ccccc3)C2(C(=O)NC2CCCCC2)c2cc(F)c(F)c(F)c2)cc1 (stereo not given) | inactive | inactive | 0.1 nM | inactive | inactive | inactive | inactive | inactive | inactive | inactive | inactive |  |  | Non-Toxic
4 | COc1ccc(C2=C(c3ccccc3)C3(C=CC(=O)C=C3)N(C(C(=O)NC3CCCCC3)c3cc4c(cc3Br)OCO4)C2=O)cc1 (stereo not given) | inactive | inactive | 14.4 nM | inactive | inactive | inactive | inactive | inactive | inactive | inactive | inactive |  |  | Non-Toxic
5 | COc1ccc(N2C(=O)/C(=C\c3ccccc3)C2(C(=O)NC(C)(C)C)c2ccc(Br)cc2)cc1OC (stereo not given) | inactive | inactive | 24 nM | inactive | inactive | inactive | inactive | inactive | inactive | inactive | inactive | 25.7 nM |  | Non-Toxic
6 | COc1cc(N2C(=O)C(=Cc3ccccc3)C2(C(=O)NC(C)(C)C)c2ccccc2)cc(OC)c1OC (stereo not given) | inactive | inactive | 0.1 nM | inactive | inactive | inactive | inactive | inactive | inactive | inactive | inactive |  |  | Non-Toxic
7 | COc1cc(N2C(=O)C(=Cc3ccccc3)C2(C(=O)NC(C)(C)C)c2ccc(Br)cc2)cc(OC)c1OC (stereo not given) |  |  |  | inactive |  |  |  |  |  |  |  |  | inactive | 
8 | Cc1ccc([C@@H]2C(=O)N[C@@H]3CC(=O)C=C[C@@]34C(c3ccccc3)=CC(=O)N24)cc1 |  |  |  | inactive |  |  |  |  |  |  |  |  | inactive | 
9 | Cc1ccc(C(C(=O)NC(C)(C)C)N2C(=O)C(I)=C(c3ccccc3)C23C=CC(=O)C=C3)cc1 (stereo not given) |  |  |  | inactive |  |  |  |  |  |  |  |  | inactive | 
10 | CC(C)(C)NC(=O)C(c1cccc(Cl)c1)N1C(=O)C(I)=C(c2ccccc2)C12C=CC(=O)C=C2 (stereo not given) |  |  |  | inactive |  |  |  |  |  |  |  |  | inactive | 
11 | COc1ccc(C2=C(c3ccccc3)C3(C=CC(=O)C=C3)N(C(C(=O)NC(C)(C)C)c3ccccc3C)C2=O)cc1 (stereo not given) |  |  |  | inactive |  |  |  |  |  |  |  |  | inactive | 
12 | O=C1C=C[C@]23C(c4ccccc4)=CC(=O)N2[C@H](c2ccc(Cl)cc2)C(=O)N[C@@H]3C1 |  |  |  | inactive |  |  |  |  |  |  |  |  | inactive | 

Now from value to compound, other results behind:

Row | Activity [1] | inhibition [2] | EC50 (Histamine H3 receptor [3]; read-out: EC50) | Activity [4] | inhibition [5] | inhibition [6] | inhibition [7] | inhibition (Histamine H3 receptor [8]) | inhibition [9] | inhibition [10] | inhibition [11] | EC50 (Histamine H3 receptor [3]; read-out: pEC50 (converted)) | inhibition (Histamine H3 receptor [12]) | Structure (SMILES) | Activity (HEK-293T)
13 | inactive | inactive | 1.3 nM | inactive | inactive | inactive | inactive | inactive | inactive | inactive | inactive |  |  | COc1ccc(NC2(c3ccc(Br)cc3)C(=O)N(C(C)(C)C)C(=O)/C2=C/c2ccccc2)cc1OC (stereo not given) | Non-Toxic
14 | inactive | inactive | 1.1 nM | inactive | inactive | inactive | inactive | inactive | inactive | inactive | inactive |  |  | COc1cc(N2C(=O)C(=Cc3ccccc3)C2(C(=O)NC(C)(C)C)c2ccc(Cl)c(F)c2)cc(OC)c1OC (stereo not given) | Non-Toxic
15 | inactive | inactive | 1.3 nM | inactive | inactive | inactive | inactive | inactive | inactive | inactive | inactive | 1.23 nM |  | COc1ccc(NC2(c3ccc(F)cc3)C(=O)N(C(C)(C)C)C(=O)/C2=C/c2ccccc2)cc1 (stereo not given) | Non-Toxic
16 |  |  |  | inactive |  |  |  |  |  |  |  |  | inactive | O=C1C=C[C@]23C(c4ccccc4)=CC(=O)N2[C@H](c2ccc(F)cc2)C(=O)N[C@@H]3C1 | 
17 |  |  |  | inactive |  |  |  |  |  |  |  |  | inactive | Cc1ccccc1C(C(=O)NC(C)(C)C)N1C(=O)C(I)=C(c2ccccc2)C12C=CC(=O)C=C2 (stereo not given) | 
18 |  |  |  | inactive |  |  |  |  |  |  |  |  | inactive | COC1=CC2(C=C(OC)C1=O)C(c1ccccc1)=C(c1ccc(OC)c(OC)c1OC)C(=O)N2C(C(=O)NC1CCCCC1)c1cc(OC)c(OC)c(OC)c1 (stereo not given) | 
19 |  |  |  | inactive |  |  |  |  |  |  |  |  | inactive | O=C1C=CC2(C=C1)C(c1ccccc1)=C(I)C(=O)N2C(C(=O)NC1CCCCC1)c1cccc([N+](=O)[O-])c1 (stereo not given) | 
20 |  |  |  | inactive |  |  |  |  |  |  |  |  | inactive | O=C1C=C[C@]23C(c4ccccc4)=CC(=O)N2[C@H](c2ccc(OC(F)(F)F)cc2)C(=O)N[C@@H]3C1 | 
21 |  |  |  | inactive |  |  |  |  |  |  |  |  | inactive | CC(C)(C)NC(=O)C(c1ccc(C#N)cc1)N1C(=O)C(I)=C(c2ccccc2)C12C=CC(=O)C=C2 (stereo not given) | 
22 |  |  |  | inactive |  |  |  |  |  |  |  |  | inactive | O=C1C=C[C@]23C(c4ccccc4)=CC(=O)N2[C@H](c2cccc(Br)c2)C(=O)N[C@@H]3C1 | 
23 |  |  |  | inactive |  |  |  |  |  |  |  |  | inactive | O=C1C=CC2(C=C1)C(c1ccccc1)=C(I)C(=O)N2C(C(=O)NC1CCCCC1)c1cc2c(cc1Br)OCO2 (stereo not given) | 
24 |  |  |  | inactive |  |  |  |  |  |  |  |  | inactive | COc1ccc(C(C(=O)NC2CCCCC2)N2C(=O)C=C(c3ccccc3)C23C=CC(=O)C=C3)cc1C (stereo not given) | 
25 |  |  |  | inactive |  |  |  |  |  |  |  |  | inactive | Cc1cc(C(C(=O)NC(C)(C)C)N2C(=O)C(I)=C(c3ccccc3)C23C=CC(=O)C=C3)cc(C)c1O (stereo not given) | 
26 |  |  |  | inactive |  |  |  |  |  |  |  |  | inactive | O=C1C=C[C@]23C(c4ccccc4)=CC(=O)N2[C@H](c2cc(F)c(F)c(F)c2)C(=O)N[C@@H]3C1 | 
27 |  |  |  | inactive |  |  |  |  |  |  |  |  | inactive | COc1cc(N2C(=O)C(=Cc3ccccc3)C2(C(=O)NC(C)(C)C)c2cc(C)cc(C)c2)cc(OC)c1OC (stereo not given) | 
